Test results from US20230079819A1, “COMPOUNDS AND USES THEREOF” (Foghorn Therapeutics Inc., priority 2019, published 2023).
Where two headings read alike, the source gives them in different places.

Tests used:
BRM = target: T1, BRM (Homo sapiens, UniProt P51531); test: ATPase catalytic activity of BRM, ADP-Glo in vitro biochemical assay; conditions: 30 nM BRM, 400 μM ATP
T1 construct: made in house; host or cells: High Five insect cells

BRG-1 = target: T2, BRG-1 (Homo sapiens, UniProt P51532); test: ATPase catalytic activity of BRG-1, ADP-Glo in vitro biochemical assay; conditions: 30 nM BRG-1, 400 μM ATP
T2 construct: made in house; host or cells: High Five insect cells
T2 sequence (P51532 whole entry): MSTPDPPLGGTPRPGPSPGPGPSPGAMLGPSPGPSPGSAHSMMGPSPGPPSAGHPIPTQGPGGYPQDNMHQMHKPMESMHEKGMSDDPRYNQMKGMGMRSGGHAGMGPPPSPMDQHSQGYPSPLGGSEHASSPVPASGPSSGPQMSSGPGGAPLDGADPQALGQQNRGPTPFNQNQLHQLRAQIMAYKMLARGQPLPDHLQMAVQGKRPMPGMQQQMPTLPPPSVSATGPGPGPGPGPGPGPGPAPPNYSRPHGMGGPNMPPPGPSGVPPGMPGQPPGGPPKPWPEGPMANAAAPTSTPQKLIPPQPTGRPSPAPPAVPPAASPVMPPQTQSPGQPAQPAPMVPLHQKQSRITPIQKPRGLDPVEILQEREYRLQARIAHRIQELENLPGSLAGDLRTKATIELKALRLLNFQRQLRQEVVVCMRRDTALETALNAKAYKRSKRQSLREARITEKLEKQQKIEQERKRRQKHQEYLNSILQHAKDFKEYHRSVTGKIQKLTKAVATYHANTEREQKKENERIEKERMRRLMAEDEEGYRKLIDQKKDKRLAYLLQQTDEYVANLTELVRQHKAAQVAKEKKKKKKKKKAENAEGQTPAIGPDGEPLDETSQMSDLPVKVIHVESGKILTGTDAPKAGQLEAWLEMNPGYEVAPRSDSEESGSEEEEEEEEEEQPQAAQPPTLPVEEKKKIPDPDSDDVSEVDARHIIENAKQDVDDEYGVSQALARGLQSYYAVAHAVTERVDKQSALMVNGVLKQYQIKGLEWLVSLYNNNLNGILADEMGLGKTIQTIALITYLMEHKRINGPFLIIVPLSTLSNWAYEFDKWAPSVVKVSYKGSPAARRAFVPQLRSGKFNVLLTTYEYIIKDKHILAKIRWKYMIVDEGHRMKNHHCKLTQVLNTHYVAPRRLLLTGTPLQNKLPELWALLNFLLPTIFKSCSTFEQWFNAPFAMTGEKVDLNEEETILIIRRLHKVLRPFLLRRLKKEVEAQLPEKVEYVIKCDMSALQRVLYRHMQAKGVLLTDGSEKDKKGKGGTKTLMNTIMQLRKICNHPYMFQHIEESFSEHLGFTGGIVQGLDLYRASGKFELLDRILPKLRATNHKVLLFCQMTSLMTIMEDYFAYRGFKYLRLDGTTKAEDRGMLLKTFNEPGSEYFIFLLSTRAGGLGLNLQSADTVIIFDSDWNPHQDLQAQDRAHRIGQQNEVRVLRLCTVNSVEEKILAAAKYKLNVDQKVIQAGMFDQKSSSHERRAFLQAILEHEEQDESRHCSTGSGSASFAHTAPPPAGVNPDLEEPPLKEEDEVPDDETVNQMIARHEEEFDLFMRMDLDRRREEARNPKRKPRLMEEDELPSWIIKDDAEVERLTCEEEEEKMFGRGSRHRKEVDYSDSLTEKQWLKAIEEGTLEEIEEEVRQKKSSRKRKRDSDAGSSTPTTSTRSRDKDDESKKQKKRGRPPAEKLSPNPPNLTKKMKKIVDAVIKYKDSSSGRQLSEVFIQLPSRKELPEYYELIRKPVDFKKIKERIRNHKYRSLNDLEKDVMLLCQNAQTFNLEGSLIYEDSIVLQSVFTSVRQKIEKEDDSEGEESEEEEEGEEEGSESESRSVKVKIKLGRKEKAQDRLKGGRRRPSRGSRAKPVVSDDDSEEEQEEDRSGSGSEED

[1] = ATPase catalytic activity, read-out: BRM IP50 (μM)*
[2] = ATPase catalytic activity, read-out: BRG1 IP50 (μM)*
[3] = ATPase catalytic activity, read-out: BRM IP50
[4] = ATPase catalytic activity, read-out: BRG1 IP50

T1 sequence (P51531 whole entry): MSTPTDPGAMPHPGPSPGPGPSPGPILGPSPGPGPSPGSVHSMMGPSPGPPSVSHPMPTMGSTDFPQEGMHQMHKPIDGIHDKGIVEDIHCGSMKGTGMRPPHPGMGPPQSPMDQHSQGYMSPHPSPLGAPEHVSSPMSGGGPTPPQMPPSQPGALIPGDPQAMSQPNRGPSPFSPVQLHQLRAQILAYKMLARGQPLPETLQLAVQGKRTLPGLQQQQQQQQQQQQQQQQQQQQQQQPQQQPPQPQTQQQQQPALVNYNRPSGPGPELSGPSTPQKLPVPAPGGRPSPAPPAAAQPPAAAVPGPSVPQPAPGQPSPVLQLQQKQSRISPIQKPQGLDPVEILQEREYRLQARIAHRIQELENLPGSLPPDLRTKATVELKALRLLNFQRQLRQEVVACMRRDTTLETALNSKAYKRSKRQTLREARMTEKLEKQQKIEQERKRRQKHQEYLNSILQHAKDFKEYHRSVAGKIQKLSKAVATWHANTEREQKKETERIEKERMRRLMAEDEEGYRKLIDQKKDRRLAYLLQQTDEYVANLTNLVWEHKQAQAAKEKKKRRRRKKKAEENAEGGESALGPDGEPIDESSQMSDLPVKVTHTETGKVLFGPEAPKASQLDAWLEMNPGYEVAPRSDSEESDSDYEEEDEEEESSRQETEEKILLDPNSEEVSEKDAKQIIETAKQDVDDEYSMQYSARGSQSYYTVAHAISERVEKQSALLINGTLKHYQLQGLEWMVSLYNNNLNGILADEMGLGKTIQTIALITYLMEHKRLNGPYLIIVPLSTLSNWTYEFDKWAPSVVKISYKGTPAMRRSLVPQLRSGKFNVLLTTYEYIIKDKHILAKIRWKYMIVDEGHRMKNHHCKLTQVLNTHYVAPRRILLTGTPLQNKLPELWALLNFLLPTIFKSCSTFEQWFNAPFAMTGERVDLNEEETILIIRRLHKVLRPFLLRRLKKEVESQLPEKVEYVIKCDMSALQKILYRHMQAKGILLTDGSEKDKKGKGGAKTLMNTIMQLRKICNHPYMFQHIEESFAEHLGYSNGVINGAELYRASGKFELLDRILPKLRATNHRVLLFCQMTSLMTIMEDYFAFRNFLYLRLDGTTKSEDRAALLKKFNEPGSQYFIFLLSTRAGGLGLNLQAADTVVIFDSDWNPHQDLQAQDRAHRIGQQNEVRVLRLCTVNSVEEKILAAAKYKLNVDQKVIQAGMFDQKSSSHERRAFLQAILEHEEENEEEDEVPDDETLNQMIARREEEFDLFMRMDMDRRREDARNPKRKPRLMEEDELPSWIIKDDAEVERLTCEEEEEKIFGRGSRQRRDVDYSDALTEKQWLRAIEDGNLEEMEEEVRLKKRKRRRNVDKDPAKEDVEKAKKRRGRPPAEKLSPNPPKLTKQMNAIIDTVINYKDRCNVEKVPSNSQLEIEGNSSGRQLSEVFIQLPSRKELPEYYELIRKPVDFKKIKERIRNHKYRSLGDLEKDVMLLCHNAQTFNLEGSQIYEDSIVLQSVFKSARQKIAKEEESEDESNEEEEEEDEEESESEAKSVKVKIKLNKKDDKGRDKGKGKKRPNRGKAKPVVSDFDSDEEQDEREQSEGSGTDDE

With `Cc1cc(-c2cccc(-c3csc(NC(=O)CNC(=O)c4ccn(S(C)(=O)=O)c4)n3)c2)cc(C)n1` [Compound 81, N-(2-((4-(3-(2,6-dimethylpyridin-4-yl)phenyl)thiazol-2-yl)amino)-2-oxoethyl)-1-(methylsulfonyl)-1H-pyrrole-3-carboxamide] the IC50 (BRM; [1]) was under 0.01 µM and the IC50 (BRG-1; [2]) was under 0.01 µM.

For `COC[C@H](NC(=O)c1ccn(C(C)(C)C#N)c1)C(=O)Nc1nc(-c2cc(C)cc(N3C[C@@H](C)O[C@@H](C)C3)n2)cs1` [Compound 740], the IC50 (BRM; [3]) was under 0.01 µM and the IC50 (BRG-1; [4]) was under 0.01 µM.

With `C[C@H](NC(=O)c1cn(C2(C)COC2)cn1)C(=O)Nc1nc(-c2ccc3ccn(C)c(=O)c3c2)cs1` [Compound 801] the IC50 (BRM; read-out: BRM IP50) was over 0.1 µM and the IC50 (BRG-1; read-out: BRG1 IP50) was over 0.1 µM.

For `COC[C@H](NC(=O)c1ccn(S(C)(=O)=O)c1)C(=O)Nc1nc(-c2cccc(-c3ccn(C)n3)c2)cs1` [Compound 462], the IC50 (BRM; [3]) was over 0.01 µM and the IC50 (BRG-1; [4]) was over 0.01 µM.

`COC[C@H]1CCCN(c2cccc(-c3csc(NC(=O)CNC(=O)c4ccn(S(C)(=O)=O)c4)n3)c2)C1` [Compound 92, (S)—N-(2-((4-(3-(3-(methoxymethyl)piperidin-1-yl)phenyl)thiazol-2-yl)amino)-2-oxoethyl)-1-(methylsulfonyl)-1H-pyrrole-3-carboxamide] gave an IC50 (BRM; [1]) of over 0.01 µM and an IC50 (BRG-1; [2]) of over 0.01 µM.

Compound `CN1Cc2ccc(-c3csc(NC(=O)CNC(=O)c4ccn(C(C)(C)C)c4)n3)cc2N(C)C1=O` [Compound 134, 1-(tert-butyl)-N-(2-((4-(1,3-dimethyl-2-oxo-1,2,3,4-tetrahydroquinazolin-7-yl)thiazol-2-yl)amino)-2-oxoethyl)-1H-pyrrole-3-carboxamide] has an IC50 (BRM; [1]) of over 0.01 µM and an IC50 (BRG-1; [2]) of over 0.1 µM.

Work on `CN1CCc2cc(-c3csc(NC(=O)CNC(=O)c4ccn(S(C)(=O)=O)c4)n3)ccc21` [Compound 658] yielded an IC50 (BRM; [3]) of over 0.01 µM and an IC50 (BRG-1; [4]) of over 0.01 µM.

Work on `CC(C)(C)n1ccc(C(=O)NCC(=O)Nc2nc(-c3cccc(N4CCC5(CCOC5)CC4)n3)cs2)c1` [Compound 626] yielded an IC50 (BRM; [3]) of over 0.1 µM and an IC50 (BRG-1; [4]) of over 0.1 µM.

`Cn1ccc2ccc(-c3csc(NC(=O)CNC(=O)c4ccn(C5(C#N)CC5)c4)n3)cc2c1=O` [Compound 475] gave an IC50 (BRM; [3]) of under 0.01 µM and an IC50 (BRG-1; [4]) of under 0.01 µM.

Work on `CO[C@@H]1CN(c2cccc(-c3csc(NC(=O)CNC(=O)c4ccn(S(C)(=O)=O)c4)n3)c2)CC[C@@H]1O` (racemic) [Compound 158] yielded an IC50 (BRM; [1]) of over 0.01 µM and an IC50 (BRG-1; [2]) of over 0.01 µM.

With `COC[C@H](NC(=O)c1ccn(S(C)(=O)=O)c1)C(=O)Nc1nc(-c2cccc(N3CCC3)c2F)cs1` [Compound 573] the IC50 (BRM; [3]) was over 0.01 µM and the IC50 (BRG-1; [4]) was over 0.01 µM.

In the case of `C[C@@H]1COCCN1c1cccc(-c2csc(NC(=O)CNC(=O)c3ccn(S(C)(=O)=O)c3)n2)c1` [Compound 239], the IC50 (BRM; [1]) is reported as over 0.01 µM and the IC50 (BRG-1; [2]) is reported as over 0.01 µM.

Compound `CC(C)(C)n1ccc(C(=O)NCC(=O)Nc2nc(-c3cccc(N4CCN(c5cccnn5)CC4)n3)cs2)c1` [Compound 627] has an IC50 (BRM; [3]) of over 0.01 µM and an IC50 (BRG-1; [4]) of over 0.1 µM.

Work on `CC(C)(C)n1ccc(C(=O)NCC(=O)Nc2nc(-c3cccc(N4CCCC(OC(F)F)C4)n3)cs2)c1` (stereo not drawn) [Compound 697] yielded an IC50 (BRM; [3]) of over 0.01 µM and an IC50 (BRG-1; [4]) of over 0.01 µM.

With `CC(C)(C)n1cnc(C(=O)NCC(=O)Nc2nc(-c3cccc(C#N)c3)cs2)c1` [Compound 3, 1-(tert-butyl)-N-(2-((4-(3-cyanophenyl)thiazol-2-yl)amino)-2-oxoethyl)-1H-imidazole-4-carboxamide] the IC50 (BRM; [1]) was over 1 µM and the IC50 (BRG-1; [2]) was over 1 µM.

Compound `C[C@@H]1CN(c2cccc(-c3csc(NC(=O)CNC(=O)c4ccn([C@@]5(C)CC5(F)F)c4)n3)n2)C[C@H](C)O1` [Compound 621] has an IC50 (BRM; [3]) of over 0.1 µM and an IC50 (BRG-1; [4]) of over 0.1 µM.

In the case of `Cc1cc(-c2cccc(-c3csc(NC(=O)CNC(=O)c4ccn(C(C)(C)C)c4)n3)c2)on1` [Compound 56, 1-(tert-butyl)-N-(2-((4-(3-(3-methylisoxazol-5-yl)phenyl)thiazol-2-yl)amino)-2-oxoethyl)-1H-pyrrole-3-carboxamide], the IC50 (BRM; [1]) is reported as over 0.01 µM and the IC50 (BRG-1; [2]) is reported as over 0.01 µM.

Compound `COC[C@@H](NC(=O)c1ccn(S(C)(=O)=O)c1)C(=O)Nc1nc(-c2cccc(-c3ccnc(OC)c3)c2)cs1` [Compound 444] has an IC50 (BRM; [3]) of over 0.1 µM and an IC50 (BRG-1; [4]) of over 0.1 µM.

`Cn1ncc(-c2cccc(-c3csc(NC(=O)CNC(=O)c4ccn(C(C)(C)C)c4)n3)n2)n1` [Compound 382, 1-tert-butyl-N-[2-[[4-[6-(2-methyltriazol-4-yl)-2-pyridyl]thiazol-2-yl]amino]-2-oxo-ethyl]pyrrole-3-carboxamide] gave an IC50 (BRM; [1]) of over 0.01 µM and an IC50 (BRG-1; [2]) of over 0.01 µM.

`CS(=O)(=O)n1ccc(C(=O)NCC(=O)Nc2nc(-c3cccc(N4CC[C@H]5OCC[C@@H]5C4)n3)cs2)c1` [Compound 764] gave an IC50 (BRM; [3]) of under 0.01 µM and an IC50 (BRG-1; [4]) of under 0.01 µM.

With `C[C@@H]1CN(c2cccc(-c3csc(NC(=O)CNC(=O)c4ccn(C5(C#N)CC5)c4)n3)c2)C[C@H](C)O1` [Compound 163] the IC50 (BRM; [1]) was under 0.01 µM and the IC50 (BRG-1; [2]) was over 0.01 µM.

With `CN[C@@H]1CCN(c2cccc(-c3csc(NC(=O)CNC(=O)c4ccn(S(C)(=O)=O)c4)n3)n2)CC1(F)F` [Compound 763, N-[2-[[4-[6-[(4R)-3,3-difluoro-4-(methylamino)-1-piperidyl]-2-pyridyl]thiazol-2-yl]amino]-2-oxo-ethyl]-1-methylsulfonyl-pyrrole-3-carboxamide] the IC50 (BRM; [3]) was under 0.01 µM and the IC50 (BRG-1; [4]) was under 0.01 µM.

`COC[C@H](NC(=O)c1ccn(C(C)(C)C)c1)C(=O)Nc1nc(-c2ccc3ccn(C)c(=O)c3c2)cs1` [Compound 63, (S)-1-(tert-butyl)-N-(3-methoxy-1-((4-(2-methyl-1-oxo-1,2-dihydroisoquinolin-7-yl)thiazol-2-yl)amino)-1-oxopropan-2-yl)-1H-pyrrole-3-carboxamide] was tested, and the IC50 (BRM; [1]) was over 0.01 µM and the IC50 (BRG-1; [2]) was over 0.01 µM.

With `C[C@@H]1CN(c2cccc(-c3cccc(NC(=O)CNC(=O)c4ccn(S(C)(=O)=O)c4)n3)c2)C[C@H](C)O1` [Compound 374, N-[2-[[6-[3-[(cis)-2,6-dimethylmorpholin-4-yl]phenyl]-2-pyridyl]amino]-2-oxo-ethyl]-1-methylsulfonyl-pyrrole-3-carboxamide] the IC50 (BRM; [1]) was over 0.01 µM and the IC50 (BRG-1; [2]) was over 0.01 µM.

Work on `C[C@@H]1CN(c2cccc(-c3csc(NC(=O)[C@H](CO)NC(=O)c4ccn(C5(C)COC5)c4)n3)n2)C[C@H](C)O1` [Compound 375] yielded an IC50 (BRM; [1]) of over 0.01 µM and an IC50 (BRG-1; [2]) of over 0.01 µM.

Work on `COC[C@H](NC(=O)c1ccn(S(C)(=O)=O)c1)C(=O)Nc1nc(-c2cc(F)c3c(c2)N(C)CC3)cs1` [Compound 713] yielded an IC50 (BRM; [3]) of under 0.01 µM and an IC50 (BRG-1; [4]) of under 0.01 µM.

`CS(=O)(=O)n1ccc(C(=O)NCC(=O)Nc2nc(-c3cccc(-c4ccnc(Cl)n4)c3)cs2)c1` [Compound 410] was tested, and the IC50 (BRM; [3]) was under 0.01 µM and the IC50 (BRG-1; [4]) was under 0.01 µM.

With `CN(C)CCN(C)c1cc(-c2cccc(-c3csc(NC(=O)CNC(=O)c4ccn(S(C)(=O)=O)c4)n3)c2)ccn1` [Compound 21, N-(2-((4-(3-(2-((2-(dimethylamino)ethyl)(methyl)amino)pyridin-4-yl)phenyl)thiazol-2-yl)amino)-2-oxoethyl)-1-(methylsulfonyl)-1H-pyrrole-3-carboxamide] the IC50 (BRM; [1]) was over 0.01 µM and the IC50 (BRG-1; [2]) was over 0.01 µM.

`CS(=O)(=O)n1ccc(C(=O)NCC(=O)Nc2nc(-c3cccc(C4CCN(CC(F)(F)F)CC4)c3)cs2)c1` [Compound 114, 1-(methylsulfonyl)-N-(2-oxo-2-((4-(3-(1-(2,2,2-trifluoroethyl)piperidin-4-yl)phenyl)thiazol-2-yl)amino)ethyl)-1H-pyrrole-3-carboxamide] was tested, and the IC50 (BRM; [1]) was over 0.1 µM and the IC50 (BRG-1; [2]) was over 0.1 µM.

`COC[C@H](NC(=O)c1ccn(S(C)(=O)=O)c1)C(=O)Nc1nc(-c2ccc3c(c2)CCO3)cs1` [Compound 688] was tested, and the IC50 (BRM; [3]) was over 0.01 µM and the IC50 (BRG-1; [4]) was over 0.01 µM.
